The text below walks through data of ChEMBL document CHEMBL2016509, “Design, synthesis and cytotoxic activities of novel hybrid compounds between 2-phenylbenzofuran and imidazole” (Bioorg Med Chem Lett, 2012).

For assay [1], the system named is SMMC-7721. Description: Cytotoxicity against human SMMC7721 cells after 48 hrs by MTT assay. Type of assay: functional, cell-based. The conditions noted are these: SMMC-7721, 48 h. On the technique in general: Tetrazolium assays rely on reduction of a dye to a coloured formazan, in cell work by metabolically active cells.
In assay [2] the test system is A549. Description: Cytotoxicity against human A549 cells after 48 hrs by MTT assay. Type of assay: functional, cell-based. The conditions noted are these: A549, 48 h.
In assay [3] the test system is SW480. Description: Cytotoxicity against human SW480 cells after 48 hrs by MTT assay. It is filed as functional, cell-based. The conditions noted are these: SW480, 48 h.
The subject of assay [4] is HL-60. In words: Cytotoxicity against human HL60 cells after 48 hrs by MTT assay. It is filed as functional, cell-based. Particulars: HL-60, 48 h.
Assay [5] concerns MCF7. Description: Cytotoxicity against human MCF7 cells after 48 hrs by MTT assay. Type of assay: functional, cell-based. The conditions noted are these: MCF7, 48 h.
Assay [6] relates to SMMC-7721. In words: Ratio of DDP IC50 to compound IC50 for human SMMC7721 cells. It is filed as functional.

Bounds are passed on as bounds.

As to `c1ccc2oc(-c3ccc(-n4ccnc4)cc3)cc2c1`, the IC50 in assay [1], in assay [2], in assay [3], in assay [4] and in assay [5] was above 40 µM throughout.

With `c1ccc(C[n+]2ccn(-c3ccc(-c4cc5ccccc5o4)cc3)c2)cc1`, the IC50 in assay [1] was determined as 15.1 µM; in assay [2] it was 25.4 µM; in assay [3], 19.9 µM; in assay [4] it was 5.37 µM; in assay [5] it was 26.9 µM.

Turning to `Brc1ccccc1C[n+]1ccn(-c2ccc(-c3cc4ccccc4o3)cc2)c1`, the IC50 in assay [1] amounted to 4.38 µM; in assay [2], 9.77 µM; in assay [3], 12.7 µM; in assay [4], 1.97 µM; in assay [5] it was 14.3 µM.

Take `C=CC[n+]1ccn(-c2ccc(-c3cc4ccccc4o3)cc2)c1`: the IC50 is 27 µM in assay [1]; 33.5 µM in assay [2]; above 40 µM in assay [3]; 14.5 µM in assay [4]; 13.7 µM in assay [5].

In the case of `CCCC[n+]1ccn(-c2ccc(-c3cc4ccccc4o3)cc2)c1`, the IC50 in assay [1] is 12.7 µM; in assay [2], 21.7 µM; in assay [3], above 40 µM; in assay [4] it was 11.8 µM; in assay [5], 31.4 µM.

Regarding `O=C(C[n+]1ccn(-c2ccc(-c3cc4ccccc4o3)cc2)c1)c1ccccc1`, the IC50 in assay [1] is 3.71 µM; in assay [2] it was 12.9 µM; in assay [3], 10.3 µM; in assay [4] it was 2.61 µM; in assay [5] it was 11.9 µM.

Turning to `O=C(C[n+]1ccn(-c2ccc(-c3cc4ccccc4o3)cc2)c1)c1ccc(O)cc1`, the IC50 in assay [1], in assay [2], in assay [3], in assay [4] and in assay [5] was above 40 µM each time.

Regarding `COc1ccc(C(=O)C[n+]2ccn(-c3ccc(-c4cc5ccccc5o4)cc3)c2)cc1`, the IC50 was found to be 3.71 µM in assay [1]; 9.79 µM in assay [2]; 6.93 µM in assay [3]; 2.26 µM in assay [4]; 11.3 µM in assay [5].

Consider `O=C(C[n+]1ccn(-c2ccc(-c3cc4ccccc4o3)cc2)c1)c1ccc(F)cc1`, for which the IC50 in assay [1] was 13.5 µM; in assay [2], 19.7 µM; in assay [3], 16.8 µM; in assay [4], 12.3 µM; in assay [5], 16.7 µM.

Turning to `O=C(C[n+]1ccn(-c2ccc(-c3cc4ccccc4o3)cc2)c1)c1ccc(Br)cc1`, the IC50 is 3.39 µM in assay [1]; 8.46 µM in assay [2]; 2.85 µM in assay [3]; 3.15 µM in assay [4]; 2.84 µM in assay [5].

For `O=C(C[n+]1ccn(-c2ccc(-c3cc4ccccc4o3)cc2)c1)c1ccc2ccccc2c1.[Br-]`, the “Ratio IC50” value in assay [6] came out at 5.4. The IC50 in assay [1] came out at 1.65 µM; in assay [2] it was 10.9 µM; in assay [3], 3.38 µM; in assay [4] it was 2.49 µM; in assay [5], 5.87 µM.

For the molecule `O=C(c1ccccc1)C(c1ccccc1)[n+]1ccn(-c2ccc(-c3cc4ccccc4o3)cc2)c1` (stereo unspecified), the IC50 was 3.31 µM in assay [1]; 6.79 µM in assay [2]; 6.93 µM in assay [3]; 2.7 µM in assay [4]; 6.9 µM in assay [5].

The term IC50 denotes the concentration needed to halve the response being measured. Lower therefore signals inhibition by little substance.
